Target: mPTPB (Mycobacterium tuberculosis, UniProt I6WXK4)
Test: PTP activity assay with pNPP substrate, mPTPB
Format: biochemical
Conditions: ratio of IC50 values

mPTPB, sequence (I6WXK4 whole entry, looked up): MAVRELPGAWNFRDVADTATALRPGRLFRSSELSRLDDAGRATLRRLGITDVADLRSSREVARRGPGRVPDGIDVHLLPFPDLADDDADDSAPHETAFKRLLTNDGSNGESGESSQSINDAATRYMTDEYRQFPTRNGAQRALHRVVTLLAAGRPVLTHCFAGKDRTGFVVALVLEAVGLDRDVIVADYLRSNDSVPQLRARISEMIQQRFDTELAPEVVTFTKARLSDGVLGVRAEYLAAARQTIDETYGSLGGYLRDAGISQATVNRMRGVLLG

SMILES: Cc1ccc(S(=O)(=O)NNC(=O)COc2ccc3cc(C(O)(C(F)(F)F)C(F)(F)F)c(O)cc3c2)cc1 [7r]
- selectivity for mPTPB compared to SHP2, PTP1B, CD45, LYP, and FAP-1: more than 7 fold
